Numbers after ± are expanded uncertainties.
Conditions: Crystal; visual observation

- Normal melting temperature: 130.00 ± 0.5 °C
Structure (SMILES): O=C(O)CC(O)C(=O)O (stereo unspecified) [hydroxybutanedioic acid]
